Reference: the kinase profiling compilation of Christmann-Franck et al. (2016)

biological target: SGK1 (human) (UniProt O00141); test: Flashplate
Sequence (O00141 whole entry, looked up): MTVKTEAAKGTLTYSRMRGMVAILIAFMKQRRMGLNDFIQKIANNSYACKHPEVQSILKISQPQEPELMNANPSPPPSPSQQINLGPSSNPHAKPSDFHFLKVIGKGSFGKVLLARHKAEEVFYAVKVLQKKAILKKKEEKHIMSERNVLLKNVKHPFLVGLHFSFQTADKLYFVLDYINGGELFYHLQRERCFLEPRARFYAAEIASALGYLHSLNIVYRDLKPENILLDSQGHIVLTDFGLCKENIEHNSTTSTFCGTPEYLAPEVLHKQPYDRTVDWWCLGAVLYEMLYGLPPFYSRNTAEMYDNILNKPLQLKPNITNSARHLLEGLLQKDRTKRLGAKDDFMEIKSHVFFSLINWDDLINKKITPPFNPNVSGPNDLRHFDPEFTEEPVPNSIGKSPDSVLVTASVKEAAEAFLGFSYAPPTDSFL

| Structure (SMILES) | Ki |
| --- | --- |
| CN1CCN(CCCNc2cccc(-c3nc4c(C(N)=O)cccc4[nH]3)n2)CC1 | > 10 µM |
| CC(C)(C)C(=O)Oc1ccc2c(c1)nc(NC(=O)c1cccc([N+](=O)[O-])c1)n2CCCO | > 10 µM |
| CCNc1nc2cc(Cl)c(OC)cc2nc1NCC | > 10 µM |
| NS(=O)(=O)c1cccc(Nc2ncc3ccn(-c4ccccc4)c3n2)c1 | 1.26 µM |
| CCOC(=O)c1cccc2[nH]c(-c3ccc(N4CCC(N)C4)cc3)nc12 (stereo not drawn) | > 10 µM |
| Cc1c(-c2cccc(OCc3ccccc3)c2)c2c(N)ncnc2n1[C@H]1C[C@H](CN2CCCC2)C1 | > 10 µM |
| NC(=O)c1cc(-c2cccc(N)c2)cc2cccnc12 | > 10 µM |
| N[C@H]1CC[C@H](Nc2nccc(-c3c[nH]c4ncccc34)n2)CC1 | 0.0501 µM |
| COc1cccc([C@@H](C)NC(=O)c2cnc(-c3ccncc3)s2)c1 | 0.501 µM |
| CNC(=O)c1cnc(N)c2c(-c3ccc(NC(=O)Nc4cc(C)ccc4F)cc3)csc12 | 5.01 µM |
| Nc1ncnc2onc(-c3ccc(NC(=O)Nc4cccc(C(F)(F)F)c4)cc3)c12 | > 10 µM |
| CC(=O)N(c1ccncc1)c1c(N[C@H](C)C(C)(C)C)c(=O)c1=O | > 10 µM |
| NC[C@@H](NC(=O)c1ccc(-c2ccncc2)cc1)c1ccccc1 | 0.794 µM |
| Nc1nccc2scc(-c3ccc(NC(=O)Nc4cccc(Br)c4)cc3)c12 | > 10 µM |
| CN(C)C(=O)Nc1ccc2nc(-c3ccco3)c(-c3ccco3)nc2c1 | > 10 µM |
| O=C(Nc1ccc(CO)cc1)c1cnn2c(-c3ccccc3)ccnc12 | > 10 µM |
| O=c1nc(-c2ccc3[nH]ncc3c2)cc(-c2ccccc2)[nH]1 | 2 µM |
| O=S(=O)(O)c1ccc(NCc2ccc3c(c2)OCO3)c2c(O)cccc12 | > 10 µM |
| Cc1cccc(NC(=O)Nc2ccc(NC(=O)c3csc4ncnc(N)c34)cc2)c1 | 6.31 µM |
| Cc1n[nH]c2c1C(c1ccccc1Cl)C(C#N)=C(N)O2 (stereo not drawn) | > 10 µM |
| CC1CSc2c(C(=O)O)c(=O)c3cc(F)c(N4CC[C@@H](N)C4)cc3n21 (stereo partly drawn) | > 10 µM |
| Nc1n[nH]c2nnc(-c3ccccc3)c(-c3ccccc3)c12 | 2.51 µM |
| CCN(CC)C(=O)Nc1ccc2nc(-c3ccco3)c(-c3ccco3)nc2c1 | > 10 µM |
| CN(C)CCCOc1cc2c(c(-c3ccc(Nc4nc5ccccc5o4)cc3)c1)CNC2=O | > 10 µM |
| CC(C)Oc1ccc(-c2noc(-c3ccc(N[C@H]4CC[C@@H](C(=O)O)C4)cc3)n2)cc1Cl | > 10 µM |
| O=C(NCCCCCCNC(=O)Nc1cccnc1)Nc1cccnc1 | > 10 µM |

| Structure (SMILES) | Ki |
| --- | --- |
| O=c1c(NCc2ccccc2F)c(Nc2ccncc2)c1=O | 0.794 µM |
| Cc1nc(COc2ccccc2Cl)sc1-c1ccnc(N)n1 | 1 µM |
| CCOc1nc(C(=O)NCc2ccc(S(N)(=O)=O)cc2)cc(N)c1C#N | > 10 µM |
| NC(=O)c1cn(-c2ccc(O)cc2Cl)c2cc(-c3ccncc3)ccc2c1=O | 7.94 µM |
| N[C@H](COc1cncc(-c2ccc3c(c2)CC(=O)N3)c1)Cc1c[nH]c2ccccc12 | 1.26 µM |
| Cc1cccc(NC(=O)Nc2ccc(-c3coc4ncnc(N)c34)cc2)c1 | 2 µM |
| Nc1n[nH]c2cccc(-c3ccc(Br)cc3)c12 | 5.01 µM |
| O=C(Nc1cccc(C(F)(F)F)n1)Nc1ccnc2c(Cl)c(Cl)ccc12 | > 10 µM |
| O=C1Nc2ccccc2Nc2nnc(I)cc21 | 3.98 µM |
| CC(=O)N1CCN(C2CCC(n3nc(-c4ccc(NC(=O)c5cc6ccccc6n5C)cc4)c4c(N)ncnc43)CC2)CC1 (stereo not drawn) | > 10 µM |
| CN(C)CC(C)(C)CNc1nccc(-c2c(-c3ccc(F)cc3)nc3cnccn23)n1 | > 10 µM |
| N#Cc1cnc(NC(=O)Nc2ccc3cc(C(=O)O)ccc3c2)cn1 | > 10 µM |
| CCCS(=O)(=O)Nc1ccc(-c2ccc3[nH]nc(NC(=O)CC)c3c2)cc1 | 7.94 µM |
| CS(=O)(=O)Nc1ccc(-c2ccc3[nH]nc(N)c3c2)cc1 | 0.631 µM |
| C#Cc1cc2c(cc1OC)-c1[nH]nc(-c3ccc(C#N)nc3)c1C2 | > 10 µM |
| CC[C@@H]1C(=O)N(C)c2cnc(Nc3ccc(C(=O)NC4CCN(C)CC4)cc3OC)nc2N1C1CCCC1 | > 10 µM |
| NCC1CCC(CNc2nc(NCc3ccccc3Cl)ncc2[N+](=O)[O-])CC1 (stereo not drawn) | 5.01 µM |
| O=c1c(NCc2ccc(Cl)cc2)c(Nc2ccncc2)c1=O | 2 µM |
| N[C@H](COc1cncc(-c2ccc(F)cc2)c1)Cc1c[nH]c2ccccc12 | > 10 µM |
| CCCCOc1ncnc2[nH]cc(-c3ccccc3)c12 | 2.51 µM |
| CCOc1nc(C(=O)NCc2ccc(S(C)(=O)=O)cc2)cc(N)c1Cl | > 10 µM |
| CCN(CCCOc1ccc2c(Nc3cc(CC(=O)Nc4cccc(F)c4)[nH]n3)ncnc2c1)CCOP(=O)(O)O | > 6.31 µM |
| Cn1cncc1C(OCc1c(-c2ccc(OC(F)(F)F)cc2)cc(C#N)c(=O)n1C)c1ccc(C#N)cc1 (stereo not drawn) | > 10 µM |
| O=C(Nc1cccc(C(F)(F)F)n1)Nc1ccnc2c(F)cccc12 | > 10 µM |
| COc1ccc(-c2ccc(NC(=O)Nc3cc(F)cc(F)c3)cc2)c2c(N)noc12 | > 10 µM |
| COc1cc(-c2ccc3[nH]nc(C(=O)Nc4ccccc4)c3c2)ccc1O | > 10 µM |

| Structure (SMILES) | Ki |
| --- | --- |
| Nc1ncnc2scc(-c3ccc(NC(=O)Nc4cc(C(F)(F)F)ccc4F)cc3)c12 | 3.16 µM |
| O=C(Nc1cccc(C(F)(F)F)n1)Nc1ccnc2cc(C(F)(F)F)ccc12 | > 10 µM |
| CCOc1nc(NC(=O)Cc2cc(OC)c(S(C)(=O)=O)cc2OC)cc(N)c1C#N | > 10 µM |
| O=C(N[C@H](CO)Cc1ccccc1)c1ccc(-c2ccncc2)cc1 | 6.31 µM |
| O=c1[nH]cc(I)c2nc(-c3cccc(Cl)c3)cn12 | 7.94 µM |
| Nc1ncnc(Nc2cc(CNC(=O)C(F)(F)F)c(O)c(-c3ccc(Cl)cc3)c2)n1 | > 10 µM |
| Nc1ccc(-c2cncc(OC[C@@H](N)Cc3c[nH]c4ccccc34)c2)cc1C(=O)c1ccccc1 | > 10 µM |
| COc1cc(/C=C(\C#N)c2nc3cc(C)ccc3[nH]2)c(Br)cc1O | 5.01 µM |
| Cn1cc(-c2cnn3c(N)c(-c4ccc(NC(=O)Nc5cccc(C(F)(F)F)c5)cc4)cnc23)cn1 | > 10 µM |
| O=C(O)c1ccc(N2C(=O)c3ccccc3C2=O)cc1O | > 10 µM |
| Cc1cccc(NC(=O)Nc2ccc(-c3cccc4c3CNC4=O)cc2C)c1 | > 10 µM |
| CN1CCN(Cc2ccc3c(c2)Cc2c(-c4csc(C#CCOCC5CC5)c4)n[nH]c2-3)CC1 | > 10 µM |
| Fc1ccc(-c2nc3sccn3c2-c2ccncc2)cc1 | > 10 µM |
| Cc1cc(N2CCOCC2)cc2[nH]c(-c3c(NC[C@@H](O)c4cccc(Cl)c4)cc[nH]c3=O)nc12 | > 10 µM |
| CC(C)n1nnc2ccc(-c3c(-c4ccc(F)cc4F)nc4occn34)cc21 | > 10 µM |
| Cc1ccc(C(=O)Nc2ccon2)cc1Nc1ncnc2c1cnn2-c1ccccc1 | > 10 µM |
| O=c1[nH]cnc2c1sc1c(Cl)ccc(Cl)c12 | > 10 µM |
| CCc1nc2c(c3cc(OC)c(OC)cc13)C(=O)NC2=O | > 10 µM |
| NC(=O)c1cc(-c2ccnc(N)n2)[nH]c1-c1ccc(Cl)cc1F | 3.98 µM |
| COc1ccc2c(c1)/C(=C/c1cnc[nH]1)C(O)=N2 | 1 µM |
| Cc1c[nH]c2nccc(Oc3c(F)cc(Nc4cc(Cl)nc(N)n4)cc3F)c12 | 0.251 µM |
| COc1cccc([C@@H](C)NC(=O)c2ccc(-c3ccncc3)cc2)c1 | 0.398 µM |
| O=C1NCCc2[nH]c(-c3ccncc3)cc21 | 5.01 µM |
| COc1cccc(-c2cc3c(=O)[nH]c4ccccc4n3c2)c1 | > 10 µM |
| O=C(c1cc(-c2ccc3[nH]ncc3c2)on1)N1CCC[C@@H](O)C1 | > 10 µM |
| COc1cc(CN2CCCCC2)c(Cl)cc1NC(=O)Nc1cnc(C#N)cn1 | > 10 µM |
